Measured values as given in the METLIN SMRT retention time set (Domingo-Almenara et al. 2019).

Experiment: gradient 5% acetonitrile 3 min, to 50% in 2 min, to 85% in 15 min, held 3 min, 100 µL/min
Conditions: column: Zorbax Extend-C18 2.1 x 50 mm; eluents: water / acetonitrile, 0.1% formic acid
Summary of the method: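 Retention times of pure standards were taken from adduct peaks that were selected by computer and manually inspected. Over 3 months, mixtures of ~100 molecules were run by HPLC–quadrupole time-of-flight mass spectrometry in positive and negative ionization mode. The Zorbax Extend-C18 column (2.1 × 50 mm, 1.8 μm) ran at 100 μL/min in water and acetonitrile, each containing 0.1% formic acid, with 40 μL dead volume and 900 μL dwell volume.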

Row | SMILES | RP-LC retention time [s]
1 | O=C(Cc1ccccc1Cl)NC1CCN(c2cc(-c3ccccc3)[nH]n2)C1 (centres undefined) | 721
2 | O=C(Cn1c(=O)oc2ccccc21)N1CCN(C(=O)C2CC2c2cccs2)CC1 (centres undefined) | 738
3 | COc1ccc(-c2nc3ccc(Br)cn3c2Nc2ccccc2C)cc1 | 830
4 | Cc1cc(NC(=O)Cn2cnc(-c3ccc(Cl)cc3)cc2=O)no1 | 735
5 | CC(C)n1cnc(S(=O)(=O)N2CCCC(C(=O)Nc3ccccc3F)C2)c1 (centres undefined) | 772
6 | CCC(C)NC(=O)N1CC(n2cc(C(=O)N3CCOCC3)nn2)C1 (centres undefined) | 608
7 | O=C(C1CCN(c2nnc(-c3ccccc3)o2)CC1)N1CCC2(CC1)OCCO2 | 701
8 | COC(=O)CCc1c(C)nc2c(c(-c3cccs3)nn2C2CCS(=O)(=O)C2)c1C (centres undefined) | 850
9 | CC1CCCCN1CCNC(=O)c1ccc(-c2ccnc(N3CCCC3)n2)cc1 (centres undefined) | 1230
10 | O=C(NCCc1cccs1)c1ccc(CN2CC(=O)N3CCCCC3C2=O)cc1 (centres undefined) | 692
11 | O=C(Cc1ccc(F)cc1)Nc1nnc(-c2ccc(Br)cc2)s1 | 952
12 | COc1ccc(OC)c(COCC(O)CN2CCc3cc(OC)c(OC)cc3C2)c1 (centres undefined) | 575
13 | CCN(CC)CCCNC(=O)C1c2ccccc2C(=O)N(C)C1c1cccs1 (centres undefined) | 602
14 | COCCNC(=O)C1CCCN(c2ncnc3c2oc2ccccc23)C1 (centres undefined) | 633
15 | CC(C)OCCCNC(=O)CN1C(=O)C2CCCCN2c2ccc(C(=O)N3CCCC3)cc21 (centres undefined) | 746
16 | O=S(=O)(NCC(c1ccccc1)S(=O)(=O)c1cccs1)c1cccs1 (centres undefined) | 878
17 | O=C(Cn1c(=O)n(-c2ccc(F)cc2)c2ncccc21)NCCN1CCCCCC1 | 625
18 | COC(=O)[C@H](CCCN=C(N)N)NS(=O)(=O)c1ccc(C)cc1 | 667
19 | O=S(=O)(c1ccccc1)N1CCOc2ccccc21 | 974
20 | COc1ccc(-c2noc(CN3C(=O)COc4ccccc43)n2)c(OC)c1 | 887
21 | CN(Cc1ccccc1)C(=O)c1ccc2c(c1)N(Cc1ccccc1)C(=O)CO2 | 878

Row | SMILES | RP-LC retention time [s]
22 | CC(C)NC(=O)c1nnc(-c2ccc(S(=O)(=O)N(C)C)cc2)o1 | 737
23 | CCc1nc(-c2csc(S(=O)(=O)N3CCCC(C(=O)N4CCc5ccccc54)C3)c2)no1 (centres undefined) | 1110
24 | CCn1cc(CCNC(=O)Nc2cccc(Cl)c2C)c2cccnc21 | 761
25 | Cc1ccc(S(=O)(=O)Cc2noc(CCNS(=O)(=O)c3ccc(C)cc3)n2)cc1 | 875
26 | COc1ccc(C(=O)NCc2ccc3c(c2)OCO3)nn1 | 654
27 | O=C(Nc1ccc(Cl)cc1)N1CCc2[nH]cnc2C1c1ccncc1 (centres undefined) | 565
28 | Cc1ccc2c(c1)C(O)(CC(=O)c1ccc(F)cc1)C(=O)N2 (centres undefined) | 717
29 | Cc1ccccc1Nc1c(-c2ccccc2F)nc2ccccn12 | 707
30 | CCc1nc2nccc(-c3cccc(OC)c3)n2n1 | 762
31 | CCN1C(=O)Cc2cc(C(=O)NCc3ccccc3)ccc21 | 706
32 | O=C(NCc1ccc(F)cc1)c1ccc2c(c1)nc1n2CCN(c2ccccc2)C1=O | 760
33 | N#Cc1nnn2c1nc(N)c1c(Cl)cccc12 | 817
34 | Cc1noc(C)c1CNC(=O)NCCc1ccccc1 | 689
35 | CC(C)n1c(=O)sc2cc(S(=O)(=O)N3CCC(C(=O)N4CCc5ccccc54)CC3)ccc21 | 1020
36 | COc1ccccc1CNC(=O)C1CCN(S(C)(=O)=O)c2ccccc2O1 (centres undefined) | 807
37 | Cc1[nH]c2ccccc2c1C(Nc1nc2ccccc2s1)c1ccccn1 (centres undefined) | 703
38 | CCc1c(C2CCN(C(=O)C3COc4ccccc4O3)CC2)noc1N (centres undefined) | 684
39 | CCc1ccc(C(C)NC(=O)C2CCN(Cc3cn(C)c4ccccc34)CC2)cc1 (centres undefined) | 764
40 | O=C(Nc1cccc(Cl)c1)N1CCc2[nH]cnc2C1c1ccncc1 (centres undefined) | 572
41 | CCCNC(=O)Cn1c(CNC(C)=O)nc2ccccc21 | 575
42 | Cc1noc(-c2cccc(OC3CN(C(=O)Cc4ccccc4)C3)c2)n1 | 854

Row | SMILES | RP-LC retention time [s]
43 | Cc1ccc(-c2noc(CSc3nc4cc5c(cc4c(=O)n3-c3ccc(F)cc3)OCO5)n2)cc1 | 1200
44 | COc1ccc(NC(=O)N2[C@H]3CC[C@@H]2c2cncnc2C3)cc1OC | 839
45 | O=C1CC(c2nc(-c3cccc(C(F)(F)F)c3)no2)CN1c1ccc2c(c1)OCO2 (centres undefined) | 1020
46 | Cc1noc(C)c1CNC(=O)c1ccc2c(c1)OCO2 | 683
47 | CC(C)CCNC(=O)C1CCCN(C(=O)Nc2ccc(NC(=O)NC3CCCC3)cc2)C1 (centres undefined) | 762
48 | O=C(CCc1nnc2c3cc(-c4ccc(F)cc4)nn3ccn12)NCCc1ccccn1 | 603
49 | CCS(=O)(=O)c1ccc(-c2ccc(NC(=O)Cc3ccc(F)cc3)cc2)nn1 | 764
50 | COc1cccc(NC(=O)Cn2c(=O)c(CCC(=O)NC3CCCC3)nc3ccccc32)c1 | 825
51 | COc1ccc(NC(=O)C2CCN(C(=O)c3ncn4c3COC(c3ccc(OC)cc3)C4)CC2)cc1 (centres undefined) | 760
52 | Cc1c(S(=O)(=O)N2CCOCC2)cc(C(=O)N2CCCC2)n1C | 658
53 | O=C1COc2cc(S(=O)(=O)N3CCC(C(=O)N4CCc5ccccc5C4)CC3)c(Cl)cc2N1 | 838
54 | Cc1nc(-c2cccc(C(=O)N3CCCc4ccccc43)c2)no1 | 900
55 | O=C1CCCC(=O)N1CCS(=O)(=O)N1CCN(Cc2nc3ccccc3[nH]2)CC1 | 554
56 | COc1ccc(NC(=O)C2CCCN2S(=O)(=O)c2ccc3c(c2)CCCC(=O)N3)cc1Cl (centres undefined) | 787
57 | CCn1cc(-c2nc(C)c(C(=O)NCc3cccnc3)s2)c2cccnc21 | 629
58 | COc1ccc(S(=O)(=O)N2CCCOC2CNC(=O)C(=O)NC2CCCCC2)cc1 (centres undefined) | 822
59 | Cc1cc(C2CCCN2C(=O)c2c(F)cccc2Cl)no1 (centres undefined) | 773
60 | CCOC(=O)c1ccc(N2C(=O)Cn3cccc3C2C(=O)NC2CCCCC2C)cc1 (centres undefined) | 994
61 | COCCN1C(=O)[C@H]2CN(C(=O)Nc3ccccc3)C[C@H]2C1=O | 732

The remaining lines, values ahead:

Row | RP-LC retention time [s] | SMILES
62 | 1180 | COc1cccc(CNC(=O)Nc2ccc(-c3nc(-c4cc(C)ccc4C)co3)cc2)c1
63 | 1360 | CCc1ccc(NC(=O)C2CCCN(c3nc4c(s3)c(C)nn4-c3ccc(OC)cc3)C2)cc1 (centres undefined)
64 | 1030 | COc1ccc(NC(=O)N2CCc3cn(CC(C)C)c4cccc(c34)C2)cc1
65 | 577 | O=C(CCCn1ncn2c(cc3occc32)c1=O)N1CCN(c2ccccn2)CC1
66 | 843 | CSc1cccc(NC(=O)N2CCC(CC(=O)NCc3cccc(F)c3)CC2)c1
67 | 619 | CCOC(=O)c1noc2ncnc(NCCCN3CCN(c4cccc(C)c4)C(C)C3)c12 (centres undefined)
68 | 853 | Cc1ccc(-c2nnc(N3CCC(C(=O)NCc4ccc(C)o4)CC3)o2)cc1
69 | 636 | Cc1cc(C)n(-c2ccc(=O)n(CCNC(=O)c3cncc(Br)c3)n2)n1
70 | 640 | CCc1nc2cc3c(cc2n1CC(=O)Nc1ccc(OC)cc1)OCCO3
71 | 808 | O=C(Nc1ccc2c(c1)OCO2)c1cn(-c2cc(N3CCCC3)ncn2)cn1
72 | 983 | CCc1nn2c(CNC(=O)c3ccc(C)c(C)c3)c(-c3ccccc3)nc2s1
73 | 732 | Cc1noc(C)c1CC(=O)N1CCc2ccccc2[C@H]1C
74 | 696 | CCCNc1cc(N2CCCC(CCC(=O)NCc3cccc(F)c3)C2)ncn1 (centres undefined)
75 | 1050 | COc1ccc(-c2csc(C)n2)cc1S(=O)(=O)N(C)c1cccc(C)c1
76 | 643 | CCOC(=O)c1noc2ncnc(N3CCN(Cc4ccccc4)CC3)c12
77 | 797 | Cc1ccccc1CC(=O)N1CCCC1c1c(C)noc1C (centres undefined)
78 | 772 | Cc1ccc(-n2cc3c(N4CCCC(C(=O)NCc5ccc(C)c(C)c5)C4)ncnc3n2)cc1 (centres undefined)
79 | 747 | O=C(c1ccc2cc[nH]c2c1)N1CCN(c2cc(-c3cccs3)[nH]n2)CC1
80 | 791 | CC(=O)Nc1ccc(C2(C(=O)NCc3ccccc3C)CCC2)cc1
81 | 801 | COc1ccc(Cl)cc1NC(=O)c1c(OC)cc(=O)n2c1CCCC2
82 | 599 | Cc1ccc(C)c(CN2CCC(CNC(=O)C3CCCN(c4cc(=O)n(C)c(=O)n4C)C3)CC2)c1 (centres undefined)
83 | 631 | Cc1ccc(NC(=O)NCc2ccnc(N3CCSCC3)c2)c(C)c1
84 | 840 | Cn1cc(-c2cc3n(n2)CCCN3C(=O)CCC(=O)N2CCN(c3ccccc3)CC2)c2ccccc21
85 | 656 | CCNc1nc(C)cc(N2CCN(C(=O)Nc3ccc(C)cc3C)CC2)n1
86 | 906 | CCNC(=O)N1CCCC(c2cccc(C(=O)NCCC3=CCCCC3)c2)C1 (centres undefined)
87 | 693 | CCCn1ncc(N2CCC(C(=O)Nc3ccc(OC)c(OC)c3)CC2)cc1=O
88 | 576 | O=C(CCn1cnc2cc(S(=O)(=O)N3CCCC3)ccc21)N1CCN(c2ccccn2)CC1
89 | 929 | COc1ccc(NS(=O)(=O)c2c(C)c(-c3nnc(C4CCC4)o3)n(C)c2C)c(C)c1
